Data published in PubChem BioAssay (NCI).
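Values below derive from 48-hour exposures of cells grown in 96-well plates, with endpoints linearly interpolated between the two concentrations bracketing the appropriate inhibition level. TGI is the concentration that stops growth completely.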

Key:
Assay in all cases: NCI-60 cell line screen, 48 h
NCI-H460 lung = tested on: NCI-H460 lung
RXF 393 renal = tested on: RXF 393 renal
RPMI-8226 leukemia = tested on: RPMI-8226 leukemia
HL-60(TB) leukemia = tested on: HL-60(TB) leukemia
A549 NSCLC = tested on: A549 NSCLC
OVCAR-5 ovarian = tested on: OVCAR-5 ovarian
UACC-62 melanoma = tested on: UACC-62 melanoma
HCC-2998 colon = tested on: HCC-2998 colon
ACHN renal = tested on: ACHN renal
DU-145 prostate = tested on: DU-145 prostate
LOX IMVI melanoma = tested on: LOX IMVI melanoma
SR leukemia = tested on: SR leukemia
MDA-N = tested on: MDA-N
OVCAR-8 ovarian = tested on: OVCAR-8 ovarian
SF-295 CNS = tested on: SF-295 CNS
BT-549 breast = tested on: BT-549 breast
SF-539 CNS = tested on: SF-539 CNS
SW-620 colon = tested on: SW-620 colon
NCI/ADR-RES ovarian = tested on: NCI/ADR-RES ovarian
HOP-92 NSCLC = tested on: HOP-92 NSCLC
MALME-3M melanoma = tested on: MALME-3M melanoma
MOLT-4 leukemia = tested on: MOLT-4 leukemia
HCT-116 colon = tested on: HCT-116 colon
SNB-75 CNS = tested on: SNB-75 CNS
SK-MEL-28 melanoma = tested on: SK-MEL-28 melanoma
SK-MEL-2 melanoma = tested on: SK-MEL-2 melanoma
CAKI-1 renal = tested on: CAKI-1 renal
K-562 leukemia = tested on: K-562 leukemia
UACC-257 melanoma = tested on: UACC-257 melanoma
NCI-H23 lung = tested on: NCI-H23 lung
MDA-MB-231 breast = tested on: MDA-MB-231 breast
KM12 colon = tested on: KM12 colon
MCF7 breast = tested on: MCF7 breast
OVCAR-3 ovarian = tested on: OVCAR-3 ovarian
SK-MEL-5 melanoma = tested on: SK-MEL-5 melanoma
NCI-H522 lung = tested on: NCI-H522 lung
A498 renal = tested on: A498 renal
M14 melanoma = tested on: M14 melanoma
SN12C renal = tested on: SN12C renal
U251 CNS = tested on: U251 CNS
HT29 colon = tested on: HT29 colon
HOP-62 NSCLC = tested on: HOP-62 NSCLC
PC-3 prostate = tested on: PC-3 prostate
UO-31 renal = tested on: UO-31 renal
SNB-19 CNS = tested on: SNB-19 CNS
MDA-MB-435 = tested on: MDA-MB-435
CCRF-CEM leukemia = tested on: CCRF-CEM leukemia
COLO 205 colon = tested on: COLO 205 colon
SK-OV-3 ovarian = tested on: SK-OV-3 ovarian
786-0 renal = tested on: 786-0 renal
NCI-H226 lung = tested on: NCI-H226 lung
IGROV1 ovarian = tested on: IGROV1 ovarian
OVCAR-4 ovarian = tested on: OVCAR-4 ovarian
EKVX NSCLC = tested on: EKVX NSCLC
SF-268 CNS = tested on: SF-268 CNS
T-47D breast = tested on: T-47D breast
TK-10 renal = tested on: TK-10 renal
HCT-15 colon = tested on: HCT-15 colon

## Nc1ccc2c3c1cccc3c(=O)n1c3ccc(Cc4ccc5c(c4)nc4c6ccc(N)c7cccc(c(=O)n54)c76)cc3nc21
NCI-H460 lung
  TGI: > 100 µM
RXF 393 renal
  TGI: > 100 µM
RPMI-8226 leukemia
  TGI: > 100 µM
HL-60(TB) leukemia
  TGI: > 100 µM
A549 NSCLC
  TGI: > 100 µM
OVCAR-5 ovarian
  TGI: > 100 µM
UACC-62 melanoma
  TGI: > 100 µM
HCC-2998 colon
  TGI: > 100 µM
ACHN renal
  TGI: > 100 µM
DU-145 prostate
  TGI: > 100 µM
LOX IMVI melanoma
  TGI: > 100 µM
SR leukemia
  TGI: > 100 µM
MDA-N
  TGI: > 100 µM
OVCAR-8 ovarian
  TGI: > 100 µM
SF-295 CNS
  TGI: > 100 µM
BT-549 breast
  TGI: > 100 µM
SF-539 CNS
  TGI: > 100 µM
SW-620 colon
  TGI: > 100 µM
NCI/ADR-RES ovarian
  TGI: > 100 µM
HOP-92 NSCLC
  TGI: > 100 µM
MALME-3M melanoma
  TGI: > 100 µM
MOLT-4 leukemia
  TGI: > 100 µM
HCT-116 colon
  TGI: > 100 µM
SNB-75 CNS
  TGI: > 100 µM
SK-MEL-28 melanoma
  TGI: > 100 µM
SK-MEL-2 melanoma
  TGI: > 100 µM
CAKI-1 renal
  TGI: > 100 µM
K-562 leukemia
  TGI: > 100 µM
UACC-257 melanoma
  TGI: > 100 µM
NCI-H23 lung
  TGI: > 100 µM
MDA-MB-231 breast
  TGI: > 100 µM
KM12 colon
  TGI: > 100 µM
MCF7 breast
  TGI: > 100 µM
OVCAR-3 ovarian
  TGI: > 100 µM
SK-MEL-5 melanoma
  TGI: > 100 µM
NCI-H522 lung
  TGI: > 100 µM
A498 renal
  TGI: > 100 µM
M14 melanoma
  TGI: > 100 µM
SN12C renal
  TGI: > 100 µM
U251 CNS
  TGI: > 100 µM
HT29 colon
  TGI: > 100 µM
HOP-62 NSCLC
  TGI: > 100 µM
PC-3 prostate
  TGI: > 100 µM
UO-31 renal
  TGI: > 100 µM
SNB-19 CNS
  TGI: > 100 µM
MDA-MB-435
  TGI: > 100 µM
CCRF-CEM leukemia
  TGI: > 100 µM
COLO 205 colon
  TGI: > 100 µM
SK-OV-3 ovarian
  TGI: > 100 µM
786-0 renal
  TGI: > 100 µM
NCI-H226 lung
  TGI: > 100 µM
IGROV1 ovarian
  TGI: > 100 µM
OVCAR-4 ovarian
  TGI: > 100 µM
EKVX NSCLC
  TGI: > 100 µM

## N#CC(c1cc(Cl)ncn1)c1nc2cc(C(F)(F)F)ccc2s1 (centres undefined)
NCI-H460 lung
  TGI: > 100 µM
RXF 393 renal
  TGI: 19.7 µM
RPMI-8226 leukemia
  TGI: > 100 µM
A549 NSCLC
  TGI: > 100 µM
OVCAR-5 ovarian
  TGI: 34.3 µM
ACHN renal
  TGI: 59.6 µM
DU-145 prostate
  TGI: > 100 µM
LOX IMVI melanoma
  TGI: 11.8 µM
SF-268 CNS
  TGI: 19.4 µM
MDA-N
  TGI: 15.7 µM
OVCAR-8 ovarian
  TGI: 13.5 µM
SF-295 CNS
  TGI: 29.2 µM
BT-549 breast
  TGI: 9.5 µM
SF-539 CNS
  TGI: 20.9 µM
SW-620 colon
  TGI: 17.8 µM
NCI/ADR-RES ovarian
  TGI: 9.5 µM
HOP-92 NSCLC
  TGI: 5.92 µM
MALME-3M melanoma
  TGI: 17.5 µM
MOLT-4 leukemia
  TGI: > 100 µM
HCT-116 colon
  TGI: 8.9 µM
SNB-75 CNS
  TGI: 25.4 µM
SK-MEL-28 melanoma
  TGI: 37.4 µM
CAKI-1 renal
  TGI: > 100 µM
K-562 leukemia
  TGI: > 100 µM
UACC-257 melanoma
  TGI: > 100 µM
NCI-H23 lung
  TGI: 6.97 µM
MDA-MB-231 breast
  TGI: 33.9 µM
KM12 colon
  TGI: 18.7 µM
OVCAR-3 ovarian
  TGI: 17.4 µM
SK-MEL-5 melanoma
  TGI: 26.2 µM
T-47D breast
  TGI: > 100 µM
NCI-H522 lung
  TGI: 3.61 µM
A498 renal
  TGI: 56.2 µM
M14 melanoma
  TGI: 18.7 µM
TK-10 renal
  TGI: > 100 µM
SN12C renal
  TGI: > 100 µM
U251 CNS
  TGI: 17.1 µM
HT29 colon
  TGI: 12.3 µM
HOP-62 NSCLC
  TGI: 30.9 µM
UO-31 renal
  TGI: 17.8 µM
SNB-19 CNS
  TGI: 22.6 µM
MDA-MB-435
  TGI: > 100 µM
COLO 205 colon
  TGI: 10.8 µM
SK-OV-3 ovarian
  TGI: 53.7 µM
786-0 renal
  TGI: 13.4 µM
NCI-H226 lung
  TGI: 92 µM
IGROV1 ovarian
  TGI: 20.3 µM
OVCAR-4 ovarian
  TGI: 19.5 µM
HCT-15 colon
  TGI: 13.6 µM
EKVX NSCLC
  TGI: 32.3 µM

## COC(=O)[C@]1(c2cc3ccccc3[nH]2)CC2CNC1C1OC(C)(C)OC21 (some centres undefined)
NCI-H460 lung
  TGI: > 100 µM
RXF 393 renal
  TGI: > 100 µM
RPMI-8226 leukemia
  TGI: > 100 µM
HL-60(TB) leukemia
  TGI: > 100 µM
A549 NSCLC
  TGI: > 100 µM
OVCAR-5 ovarian
  TGI: > 100 µM
UACC-62 melanoma
  TGI: > 100 µM
HCC-2998 colon
  TGI: > 100 µM
ACHN renal
  TGI: > 100 µM
DU-145 prostate
  TGI: > 100 µM
LOX IMVI melanoma
  TGI: > 100 µM
SR leukemia
  TGI: > 100 µM
SF-268 CNS
  TGI: > 100 µM
MDA-N
  TGI: > 100 µM
OVCAR-8 ovarian
  TGI: > 100 µM
SF-295 CNS
  TGI: > 100 µM
BT-549 breast
  TGI: > 100 µM
SF-539 CNS
  TGI: > 100 µM
SW-620 colon
  TGI: > 100 µM
NCI/ADR-RES ovarian
  TGI: > 100 µM
HOP-92 NSCLC
  TGI: > 100 µM
MALME-3M melanoma
  TGI: > 100 µM
MOLT-4 leukemia
  TGI: > 100 µM
HCT-116 colon
  TGI: > 100 µM
SNB-75 CNS
  TGI: > 100 µM
SK-MEL-28 melanoma
  TGI: > 100 µM
SK-MEL-2 melanoma
  TGI: > 100 µM
CAKI-1 renal
  TGI: > 100 µM
K-562 leukemia
  TGI: > 100 µM
UACC-257 melanoma
  TGI: > 100 µM
NCI-H23 lung
  TGI: > 100 µM
MDA-MB-231 breast
  TGI: > 100 µM
KM12 colon
  TGI: > 100 µM
MCF7 breast
  TGI: > 100 µM
OVCAR-3 ovarian
  TGI: > 100 µM
SK-MEL-5 melanoma
  TGI: > 100 µM
T-47D breast
  TGI: > 100 µM
NCI-H522 lung
  TGI: > 100 µM
M14 melanoma
  TGI: > 100 µM
TK-10 renal
  TGI: > 100 µM
SN12C renal
  TGI: > 100 µM
U251 CNS
  TGI: > 100 µM
HT29 colon
  TGI: > 100 µM
HOP-62 NSCLC
  TGI: > 100 µM
PC-3 prostate
  TGI: > 100 µM
UO-31 renal
  TGI: > 100 µM
SNB-19 CNS
  TGI: > 100 µM
MDA-MB-435
  TGI: > 100 µM
CCRF-CEM leukemia
  TGI: > 100 µM
COLO 205 colon
  TGI: > 100 µM
SK-OV-3 ovarian
  TGI: > 100 µM
786-0 renal
  TGI: > 100 µM
NCI-H226 lung
  TGI: > 100 µM
IGROV1 ovarian
  TGI: > 100 µM
OVCAR-4 ovarian
  TGI: > 100 µM
HCT-15 colon
  TGI: > 100 µM
EKVX NSCLC
  TGI: > 100 µM

## COc1ccc2c3c(c4cc(OC)c(OC)cc4c2c1)CN1CCC[C@H]1[C@@H]3O
RXF 393 renal
  TGI: 7.64 µM
RPMI-8226 leukemia
  TGI: 5.17 µM
A549 NSCLC
  TGI: > 55.4 µM
OVCAR-5 ovarian
  TGI: > 28.3 µM
SR leukemia
  TGI: 4.87 µM
MDA-N
  TGI: 0.706 µM
SF-295 CNS
  TGI: 4.03 µM
BT-549 breast
  TGI: 6.76 µM
SF-539 CNS
  TGI: 0.829 µM
SW-620 colon
  TGI: > 39.8 µM
NCI/ADR-RES ovarian
  TGI: 26.1 µM
MALME-3M melanoma
  TGI: 0.829 µM
HCT-116 colon
  TGI: 1.22 µM
SK-MEL-28 melanoma
  TGI: 0.667 µM
SK-MEL-2 melanoma
  TGI: 0.591 µM
CAKI-1 renal
  TGI: 0.234 µM
K-562 leukemia
  TGI: 0.653 µM
UACC-257 melanoma
  TGI: 0.544 µM
NCI-H23 lung
  TGI: 0.169 µM
KM12 colon
  TGI: 0.341 µM
MCF7 breast
  TGI: > 100 µM
OVCAR-3 ovarian
  TGI: > 21.1 µM
SK-MEL-5 melanoma
  TGI: 0.398 µM
NCI-H522 lung
  TGI: 2.85 µM
M14 melanoma
  TGI: 1.3 µM
SN12C renal
  TGI: 0.237 µM
HT29 colon
  TGI: 0.373 µM
HOP-62 NSCLC
  TGI: 2.81 µM
PC-3 prostate
  TGI: > 41.9 µM
SNB-19 CNS
  TGI: 2.13 µM
MDA-MB-435
  TGI: 4.21 µM
COLO 205 colon
  TGI: 0.304 µM
SK-OV-3 ovarian
  TGI: > 100 µM
NCI-H226 lung
  TGI: 11.5 µM
IGROV1 ovarian
  TGI: 0.326 µM
OVCAR-4 ovarian
  TGI: 31.2 µM
HCT-15 colon
  TGI: 1.19 µM
EKVX NSCLC
  TGI: 0.578 µM
